This is an account of results in patent publication EP3192802A1, “STABILIZED PEPTIDE DERIVATIVES” (Bicycle Therapeutics Limited, priority 2016, dated 2017).

pKd: −log10 of the molar value.

In assay [1] the target is T1, MT1-MMP (Homo sapiens, UniProt P50281). Briefly: fluorescence polarisation competition experiments (affinity to MT1-MMP). It counts as binding. To be noted: tris-sulfone version, Figure 2. The method, then:
Subsequently, the affinity to the MT1-MMP target was measured by fluorescence polarisation competition experiments for 17-69-07-N241, and its sulfone versions (Figure 2).
On the technique in general: Polarisation of emitted light reports the rotation of a fluorescent probe.

For assay [2], the target named is T1, MT1-MMP. Briefly: selectivity / cross-reactivity against other MMPs. The format is binding. To be noted: does not cross-react with MMP-1, MMP-2, MMP-15 and MMP-16.

The pKd is −log10 of the Kd, conventionally taken in molar units. In turn, `C[C@H](NC(=O)CN(C)C(=O)CN(C)C(=O)CN(C)C(=O)CN(C)C(=O)CN(C)C(=O)CN(C)C(=O)CN(C)C(=O)CN(C)C(=O)CN(C)C(=O)CN(C)C(=O)CCN)C(=O)N[C@H]1CS(=O)(=O)Cc2cc3cc(c2)CS(=O)(=O)C[C@H](NC(=O)[C@@H](C)NC(=O)[C@H](Cc2cccc4ccccc24)NC(=O)[C@H](CCC(=O)O)NC(=O)[C@H](CC(N)=O)NC(=O)[C@@H](C)NC1=O)C(=O)N[C@@H](CCC(=O)O)C(=O)N[C@@H](CC(=O)O)C(=O)N[C@@H](Cc1ccccc1)C(=O)N[C@@H](Cc1ccc(O)cc1)C(=O)N[C@@H](CC(=O)O)C(=O)N[C@@H](C(C)(C)C)C(=O)N[C@H](C(N)=O)CS(=O)(=O)C3` [17-69-07-N338] gave a pKd at MT1-MMP [1] of about 8.00.
Turning to “-Ci-Y-N-E-F-G-Cii-E-D-F-Y-D-I-Ciii- [17-69-07]”, the “selectivity for MT1-MMP” value at MT1-MMP [2] was “uniquely selective for MT1-MMP”.
